Assay results: US20120214802A1, “PYRROLIDINE COMPOUNDS WHICH INHIBIT BETA-SECRETASE ACTIVITY AND METHODS OF USE THEREOF” (priority 2009, published 2012)
pKi: −log10 of the molar value.

Target: memapsin 2 (Homo sapiens, UniProt P56817)
Assay: Inhibition of memapsin 2 beta-secretase activity (fluorogenic substrate FS-2)
Assay type: biochemical
Details: pH 4, 37° C., read-out: M2 Ki
Procedure: Potency of compounds were determined by measurement of their inhibition of memapsin 2 activity toward a fluorescent substrate. Kinetic inhibition experiments were performed using the procedure as described in Ermolieff, et al. (Biochemistry 39:12450-12456 (2000), the teachings of which are incorporated hereby in their entirety). Briefly, assays were performed at pH 4, 37° C., by pre-incubation of memapsin 2 enzyme with compound for 20 minutes. Activity measurements were initiated by addition of a fluorogenic substrate FS-2 (Bachem Americas, Torrance, Calif.) MCA-SEVNLDAEFR-DNP (SEQ ID NO.: 2). The substrate was derived from 10 amino acids of the human amyloid precursor protein (APP), with the Swedish variant amino acids at the beta-secretase cleavage site. The terminal amino acid was modified from arginine to lysine to facilitate derivatization with a functional group for detection by autofluorescence. The amino acid sequence of the “core” peptide of the substrate is SEVNLDAEFK (SEQ ID NO.: 3). The amino terminus was derivatized with (7-methoxycoumarin-4-yl)acetyl (MCA), and the epsilon amine of the lysine side chain of the terminal residue (K in sequence SEVNLDAEFK (SEQ ID NO.: 3)) was derivatized with 2,4-dinitorphenyl (DNP).

Chain of memapsin 2 (P56817 46-501): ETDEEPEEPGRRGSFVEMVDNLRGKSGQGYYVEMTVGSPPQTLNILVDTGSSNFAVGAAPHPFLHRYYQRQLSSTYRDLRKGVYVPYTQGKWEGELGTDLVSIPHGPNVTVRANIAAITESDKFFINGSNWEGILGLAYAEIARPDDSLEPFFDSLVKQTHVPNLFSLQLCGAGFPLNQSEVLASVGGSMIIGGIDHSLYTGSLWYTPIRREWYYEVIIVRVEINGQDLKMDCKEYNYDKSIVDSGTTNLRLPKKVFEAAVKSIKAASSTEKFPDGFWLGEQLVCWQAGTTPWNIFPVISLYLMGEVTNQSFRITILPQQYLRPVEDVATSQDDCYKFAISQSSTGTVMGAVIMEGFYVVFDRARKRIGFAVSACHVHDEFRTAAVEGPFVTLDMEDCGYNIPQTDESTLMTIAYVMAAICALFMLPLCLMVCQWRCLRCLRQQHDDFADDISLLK

Cc1coc([C@H]2CCCN2C(=O)c2cccc(C(=O)N[C@@H](Cc3ccccc3)[C@H](O)[C@H]3CCCN3C(=O)OC(C)(C)C)c2)n1 [1-3, (R)-tert-butyl 2-((1S,2S)-1-hydroxy-2-(3-((R)-2-(4-methyloxazol-2-yl)pyrrolidine-1-carbonyl)benzamido)-3-phenylpropyl)pyrrolidine-1-carboxylate]
pKi: < 6.12

Cc1csc([C@H]2CCCN2C(=O)c2cccc(C(=O)N[C@@H](Cc3ccccc3)[C@H](O)[C@H]3CC[C@@H](c4ccccc4)N3)c2)n1 [1-29, N-((1R,2S)-1-hydroxy-3-phenyl-1-((2R,5S)-5-phenylpyrrolidin-2-yl)propan-2-yl)-3-((R)-2-(4-methylthiazol-2-yl)pyrrolidine-1-carbonyl)benzamide]
pKi: < 6.12

Cc1csc(CN(C)C(=O)c2cc(C(=O)N[C@@H](Cc3ccccc3)[C@H](O)[C@H]3CCCN3)cc(-c3ccc(F)cc3F)c2)n1 [1-30, 2′,4′-difluoro-N3-((1R,2S)-1-hydroxy-3-phenyl-1-((R)-pyrrolidin-2-yl)propan-2-yl)-N5-methyl-N5-((4-methylthiazol-2-yl)methyl)biphenyl-3,5-dicarboxamide]
pKi: > 6.60

Cc1csc([C@H]2CCCN2C(=O)c2cccc(C(=O)N[C@@H](Cc3ccccc3)[C@H](O)[C@@H]3CC[C@H](c4ccccc4)N3)c2)n1 [1-31, N-((1R,2S)-1-hydroxy-3-phenyl-1-((2S,5R)-5-phenylpyrrolidin-2-yl)propan-2-yl)-3-((R)-2-(4-methylthiazol-2-yl)pyrrolidine-1-carbonyl)benzamide]
pKi: < 6.12

Cc1csc([C@H]2CCCN2C(=O)c2cc(C(=O)N[C@@H](Cc3ccccc3)[C@H](O)[C@H]3C[C@H](F)CN3)cc(-c3ncco3)c2)n1 [1-38, N-((1R,2S)-1-((2R,4S)-4-fluoropyrrolidin-2-yl)-1-hydroxy-3-phenylpropan-2-yl)-3-((R)-2-(4-methylthiazol-2-yl)pyrrolidine-1-carbonyl)-5-(oxazol-2-yl)benzamide]
pKi: > 6.60

Cc1csc(CN(C)C(=O)c2cccc(C(=O)N[C@@H](Cc3cccc(F)c3)[C@H](O)[C@H]3CCCN3)c2)n1 [1-54, N1-((1R,2S)-3-(3-fluorophenyl)-1-hydroxy-1-((R)-pyrrolidin-2-yl)propan-2-yl)-N3-methyl-N3-((4-methylthiazol-2-yl)methyl)isophthalamide]
pKi: 6.12 to 6.60

Cc1csc([C@H]2CCCN2C(=O)c2cc(C(=O)N[C@@H](Cc3ccccc3)[C@H](O)[C@H]3CCCN3)cc([N+](=O)[O-])c2)n1 [1-55, N-((1R,2S)-1-hydroxy-3-phenyl-1-((R)-pyrrolidin-2-yl)propan-2-yl)-3-((R)-2-(4-methylthiazol-2-yl)pyrrolidine-1-carbonyl)-5-nitrobenzamide]
pKi: > 6.60

Cc1csc([C@H]2CCCN2C(=O)c2cc(Cl)cc(C(=O)N[C@@H](Cc3ccccc3)[C@H](O)[C@H]3CCCN3)c2)n1 [1-56, 3-chloro-N-((1R,2S)-1-hydroxy-3-phenyl-1-((R)-pyrrolidin-2-yl)propan-2-yl)-5-((R)-2-(4-methylthiazol-2-yl)pyrrolidine-1-carbonyl)benzamide]
pKi: > 6.60

Cc1csc([C@H]2CCCN2C(=O)c2cccc(C(=O)N[C@@H](Cc3ccccc3)[C@H](O)[C@@H]3NCCC3(F)F)c2)n1 [1-57, N-((1S,2S)-1-((S)-3,3-difluoropyrrolidin-2-yl)-1-hydroxy-3-phenylpropan-2-yl)-3-((R)-2-(4-methylthiazol-2-yl)pyrrolidine-1-carbonyl)benzamide]
pKi: > 6.60

Cc1csc([C@H]2CCCN2C(=O)c2cc(C(=O)N[C@@H](Cc3ccccc3)[C@H](O)[C@H]3CC[C@@H](C)N3)cc(-n3cccc3)c2)n1 [1-58, N-((1R,2S)-1-hydroxy-1-((2R,5R)-5-methylpyrrolidin-2-yl)-3-phenylpropan-2-yl)-3-((R)-2-(4-methylthiazol-2-yl)pyrrolidine-1-carbonyl)-5-(1H-pyrrol-1-yl)benzamide]
pKi: 6.12 to 6.60

Cc1csc([C@H]2CCCN2C(=O)c2cc(C(=O)N[C@@H](Cc3ccccc3)[C@H](O)[C@H]3C[C@H](F)CN3)cc(-n3cccc3)c2)n1 [1-59, N-((1R,2S)-1-((2R,4S)-4-fluoropyrrolidin-2-yl)-1-hydroxy-3-phenylpropan-2-yl)-3-((R)-2-(4-methylthiazol-2-yl)pyrrolidine-1-carbonyl)-5-(1H-pyrrol-1-yl)benzamide]
pKi: > 6.60

Cc1csc(CN(C)C(=O)c2cccc(C(=O)N[C@@H](Cc3ccccc3)[C@H](O)[C@H]3C[C@H](F)CN3)c2)n1 [1-60, N1-((1R,2S)-1-((2R,4S)-4-fluoropyrrolidin-2-yl)-1-hydroxy-3-phenylpropan-2-yl)-N3-methyl-N3-((4-methylthiazol-2-yl)methyl)isophthalamide]
pKi: < 6.12

Cc1csc([C@H]2CCCN2C(=O)c2cc(C(=O)N[C@@H](Cc3cc(F)cc(F)c3)[C@H](O)[C@H]3CCCN3)ccn2)n1 [1-61, N-((1R,2S)-3-(3,5-difluorophenyl)-1-hydroxy-1-((R)-pyrrolidin-2-yl)propan-2-yl)-2-((R)-2-(4-methylthiazol-2-yl)pyrrolidine-1-carbonyl)isonicotinamide]
pKi: 6.12 to 6.60

Cc1csc([C@H]2CCCN2C(=O)c2cc(C(=O)N[C@@H](Cc3cc(F)cc(F)c3)[C@H](O)[C@H]3CCCN3)cc(C3CC3)c2)n1 [1-62, 3-cyclopropyl-N-((1R,2S)-3-(3,5-difluorophenyl)-1-hydroxy-1-((R)-pyrrolidin-2-yl)propan-2-yl)-5-((R)-2-(4-methylthiazol-2-yl)pyrrolidine-1-carbonyl)benzamide]
pKi: > 6.60

Cc1csc([C@H]2CCCN2C(=O)c2cc(C(=O)N[C@@H](Cc3cc(F)cc(F)c3)[C@H](O)[C@H]3CCCN3)cc(-c3cnccn3)c2)n1 [1-63, N-((1R,2S)-3-(3,5-difluorophenyl)-1-hydroxy-1-((R)-pyrrolidin-2-yl)propan-2-yl)-3-((R)-2-(4-methylthiazol-2-yl)pyrrolidine-1-carbonyl)-5-(pyrazin-2-yl)benzamide]
pKi: > 6.60

Cc1csc([C@H]2CCCN2C(=O)c2cccc(C(=O)N[C@@H](Cc3ccc(F)cc3)[C@H](O)[C@H]3CCCN3)c2)n1 [1-65, N-((1R,2S)-3-(4-fluorophenyl)-1-hydroxy-1-((R)-pyrrolidin-2-yl)propan-2-yl)-3-((R)-2-(4-methylthiazol-2-yl)pyrrolidine-1-carbonyl)benzamide]
pKi: 6.12 to 6.60

Cc1csc(CN(C)C(=O)c2cccc(C(=O)N[C@@H](Cc3ccc(F)cc3)[C@H](O)[C@H]3CCCN3)c2)n1 [1-66, N1-((1R,2S)-3-(4-fluorophenyl)-1-hydroxy-1-((R)-pyrrolidin-2-yl)propan-2-yl)-N3-methyl-N3-((4-methylthiazol-2-yl)methyl)isophthalamide]
pKi: < 6.12

Cc1csc([C@H]2CCCN2C(=O)c2cccc(C(=O)N[C@@H](Cc3ccccc3)[C@H](O)[C@H]3CCC(C)(C)N3)c2)n1 [1-67, N-((1R,2S)-1-((R)-5,5-dimethylpyrrolidin-2-yl)-1-hydroxy-3-phenylpropan-2-yl)-3-((R)-2-(4-methylthiazol-2-yl)pyrrolidine-1-carbonyl)benzamide]
pKi: < 6.12

Cc1csc([C@H]2CCCN2C(=O)c2cc(C(=O)N[C@@H](Cc3ccccc3)[C@H](O)[C@H]3CCCN3)cc(S(C)(=O)=O)c2)n1 [1-68, N-((1R,2S)-1-hydroxy-3-phenyl-1-((R)-pyrrolidin-2-yl)propan-2-yl)-3-(methylsulfonyl)-5-((R)-2-(4-methylthiazol-2-yl)pyrrolidine-1-carbonyl)benzamide]
pKi: > 6.60

Cc1csc([C@H]2CCCN2C(=O)c2cc(C(=O)N[C@@H](Cc3ccccc3)[C@H](O)[C@H]3CCCN3)cc(C(F)(F)F)c2)n1 [1-72, N-((1R,2S)-1-hydroxy-3-phenyl-1-((R)-pyrrolidin-2-yl)propan-2-yl)-3-((R)-2-(4-methylthiazol-2-yl)pyrrolidine-1-carbonyl)-5-(trifluoromethyl)benzamide]
pKi: > 6.60

Cc1csc([C@H]2CCCN2C(=O)c2cc(C(=O)N[C@@H](Cc3ccccc3)[C@H](O)[C@H]3CCCN3)cc(-n3ccnc3)c2)n1 [1-77, N-((1R,2S)-1-hydroxy-3-phenyl-1-((R)-pyrrolidin-2-yl)propan-2-yl)-3-(1H-imidazol-1-yl)-5-((R)-2-(4-methylthiazol-2-yl)pyrrolidine-1-carbonyl)benzamide]
pKi: 6.12 to 6.60

Cc1csc([C@H]2CCCN2C(=O)c2cccc(C(=O)N[C@@H](Cc3ccccc3)[C@@H](O)[C@H]3CCCN3)c2)n1 [1-80, N-((1S,2S)-1-hydroxy-3-phenyl-1-((R)-pyrrolidin-2-yl)propan-2-yl)-3-((R)-2-(4-methylthiazol-2-yl)pyrrolidine-1-carbonyl)benzamide]
pKi: < 6.12

CO[C@H]1CN[C@@H]([C@@H](O)[C@H](Cc2ccccc2)NC(=O)c2cc(C(=O)N3CCC[C@@H]3c3nc(C)cs3)cc(-c3ncco3)c2)C1 [1-81, N-((1R,2S)-1-hydroxy-1-((2R,4R)-4-methoxypyrrolidin-2-yl)-3-phenylpropan-2-yl)-3-((R)-2-(4-methylthiazol-2-yl)pyrrolidine-1-carbonyl)-5-(oxazol-2-yl)benzamide]
pKi: > 6.60

CO[C@H]1CN[C@@H]([C@H](O)[C@H](Cc2ccccc2)NC(=O)c2cccc(C(=O)N3CCC[C@@H]3c3nc(C)cs3)c2)C1 [1-82, N-((1S,2S)-1-hydroxy-1-((2R,4R)-4-methoxypyrrolidin-2-yl)-3-phenylpropan-2-yl)-3-((R)-2-(4-methylthiazol-2-yl)pyrrolidine-1-carbonyl)benzamide]
pKi: > 6.60
